Patent US20260182611A1, “SWEETENER COMPOSITION AND TASTE-IMPROVING AGENT” (AJINOMOTO CO., INC., priority 2023, published 2026)

Test: Sensory evaluation of taste quality (sweetness intensity, bitter taste, lingering sweetness) of sweet solutions by trained panel
Design: species or system human
Conditions: closer to PC sucrose
Procedure: Rebaudioside A (MORITA KAGAKU KOGYO CO., LTD.) was dissolved in filtered water (ion exchange water) to prepare a 720 ppm aqueous solution of rebaudioside A, which was used as the negative control (NC) solution.
Sucrose (Mitsui DM Sugar Co., Ltd.) was dissolved in filtered water to prepare a 7.5% aqueous solution of sucrose, which was used as the positive control (PC) solution.
Sweet solutions prepared by adding each compound (naringenin (Penta Manufacturing Company), hesperetin (Xi'an International Healthcare Factory Co., Ltd.), pinocembrin (Shaanxi Ebony Biotech Co., Ltd.), γ-Glu-Val-Gly (AJINOMOTO CO., INC.), γ-Glu-Abu (AJINOMOTO CO., INC.), yeast extract containing γ-Glu-Abu, γ-nonalactone (Sigma-Aldrich Co. LLC.)) to NC solution at the concentrations indicated in Tables 1 to 5 were evaluated by sensory evaluation.
The yeast extract containing γ-Glu-Abu used in this example was a powdered yeast extract containing 7 to 13% (w/w) γ-Glu-Abu based on dry weight, which was produced in accordance with the method described in WO 2012/046731 or “Savorboost (product name) yeast extract containing γ-Glu-Abu (Asahi Group Foods, Ltd.)”. In Tables 1-4, the concentration of the yeast extract containing γ-Glu-Abu added is shown as a value converted to the amount of γ-Glu-Abu in the yeast extract.
The taste quality of the PC solution (7.5% sucrose) was scored as 10.0 points, the taste quality of the NC solution (720 ppm rebaudioside A) was scored as 1.0 points, and the sensory evaluation score for each sample was evaluated in 0.1 point increments. The taste quality was evaluated including sweetness intensity, intensity of bitter taste, and intensity of lingering sweetness. Samples with an evaluation score of 3 or higher were deemed to have a taste quality-improving effect. The evaluation was performed by a panel of four people who had received sensory evaluation training, and was conducted by blind evaluation. The average evaluation score of all panel members was calculated and addition effect was examined.
In addition, to compare with the addition effect of a single component, a theoretical additive point was calculated and compared with the evaluation score when the components were added in combination to examine the presence or absence of a synergistic effect.

[1] = 5 ppm of the flavonoid in combination with 0.3 ppm γ-Glu-Val-Gly
[2] = flavonoid in combination with γ-Glu-Abu or a yeast extract containing γ-Glu-Abu

SMILES | taste quality of rebaudioside A [1] | taste quality of rebaudioside A [2] | taste quality of rebaudioside A (combination of pinocembrin and rebaudioside A alone)
COc1ccc(C2CC(=O)c3c(O)cc(O)cc3O2)cc1O (stereo not shown) [hesperetin] | synergistically improved the taste quality of rebaudioside A | synergistically improved the taste quality of rebaudioside A | 
O=C1CC(c2ccccc2)Oc2cc(O)cc(O)c21 (stereo not shown) [pinocembrin] | synergistically improved the taste quality of rebaudioside A | synergistically improved the taste quality of rebaudioside A | improved the taste quality of rebaudioside A
O=C1C[C@@H](c2ccc(O)cc2)Oc2cc(O)cc(O)c21 [naringenin] | synergistically improved the taste quality of rebaudioside A | synergistically improved the taste quality of rebaudioside A | 
